Literature values, collected in patent US20050233005A1, “Use of glycosaminoglycans and zinc derivatives for insect bites, stings and the like” (priority 2004, published 2005).

Tests used:
[1] = system: pruritus caused by mosquito bites; settings: administered prophylactically (Karppinen et al., 2002)
[2] = topical applications and oral administration, animal models and humans (SCCNFP report, 2003)
porcine wounds = settings: topical application (Tarnow et al., 1994; Agren et al., 2001)
skin wound = settings: topical application (Chen and Abatengelo, 1999)
diabetic foot wounds = settings: in wound dressings (Vazquez et al., 2003)

CC(C)(C)c1ccc(C(=O)CCCN2CCC(OC(c3ccccc3)c3ccccc3)CC2)cc1 [ebastine]
pruritus caused by mosquito bites [1]: significantly decrease

O=S(=O)([O-])[O-].[Zn+2] [zinc sulphate]
toxicity [2]: little or no toxicity

[O]=[Zn] [zinc oxide]
release of growth factors (porcine wounds): enhanced
toxicity [2]: little or no toxicity

Hyaluronic acid [HA]
skin wound healing (skin wound): accelerate
healing of diabetic foot wounds (diabetic foot wounds): beneficial

O=C(O)COCCN1CCN(C(c2ccccc2)c2ccc(Cl)cc2)CC1 (stereo not shown) [cetirizine]
pruritus caused by mosquito bites [1]: significantly decrease
